Reference: patent publication US20110301046A1, “Methods of Determining Efficacy of Glucocorticoid Treatment of Eosinophilic Esophagitis” (Children's Hospital Medical Center, priority 2008, published 2011)

Assays:
[1] = system: serpinb4 transcript in TE-7 cells; test: IL-13-induced serpinb4 transcript levels in TE-7 cells, real-time PCR; format: cell-based; details: IL-13 100 ng/ml, 24 h
Procedure: (§1) FIG. 4 depicts IL-13 induced transcript levels of two representative genes are reversed by FP treatment. TE-7 cells were treated as indicated with IL-13 (100 ng/ml) and/or the indicated dose of FP for 24 h. RNA was isolated and cDNA synthesis was performed. Transcript levels of eotaxin-3 (A) and serpinb4 (B) were determined by real-time PCR analysis and normalized to GAPDH levels. *, p<0.05; **, p<0.01.
(§2) IL-13 signaling in esophageal epithelial cells is known to have a role in EE pathogenesis by inducing the EE transcriptome. […] When TE-7 cells are treated with IL-13, an increase in eotaxin-3 and serpinb4 transcript levels is observed (FIG. 4A, B).

[2] = system: FKBP51 transcript in peripheral blood mononuclear cells; test: FKBP51 induction in PBMCs cultured ex vivo, real-time PCR; format: cell-based, human; details: all FP concentrations tested, 24 h, normalized to GAPDH
Procedure: (§3) FIG. 3 depicts FKBP51 induction following glucocorticoid treatment. (A) Peripheral blood mononuclear cells (PBMCs) were isolated from a patient blood sample and cultured ex vivo. The cells were treated with the indicated concentration of FP for 24 h. RNA was isolated, cDNA synthesis was performed, and real-time PCR analysis was conducted. FKBP51 transcript levels were normalized to GAPDH levels. (B) Primary esophageal epithelial cells were cultured from the biopsy of an EE patient with active disease. Cells were treated or not with 10^−6 M FP for 24 h. Protein extracts were prepared and subjected to SDS-PAGE and western blot analysis for FKBP51 and actin (left). FKBP51 and actin levels were quantified by densitometry analysis. The ratio of FKBP51 to actin is shown (right). (C) TE-7 cells were treated with the indicated dose of FP for 24 h. Protein extracts were then prepared and subjected to SDS-PAGE and western blot analysis for FKBP51 and actin (top). Densitometry analysis was performed and the fold-change in the ratio of FKBP51 to actin expression is graphed (bottom). (D) TE-7 cells were treated for the indicated amount of time with 10^−7 M FP. RNA was isolated, cDNA synthesis was performed, and real-time PCR analysis to detect FKBP51 and GAPDH transcripts was done (left). […]

eotaxin-3 3' UTR = test: Eotaxin-3 3' UTR luciferase reporter in transfected TE-7 cells, dual luciferase assay; format: cell-based; details: IL-13 100 ng/ml and/or FP 10^-6 M, 24 h, FIG. 6B
Procedure: (§4) Cells were transfected with Phrl-TK and pEotaxin-3 (A) or pEotaxin-3 3′UTR (B) for 48 h. Cells were then treated with IL-13 (100 ng/ml) and/or FP (10^−6 M) for 24 h. Protein lysates were then collected, and firefly and Renilla luciferase activity for each sample was quantified by dual luciferase assay (Promega). Eotaxin-3 promoter activity is expressed as the ratio of firefly to Renilla luciferase activity. **, p<0.01.
(§5) The contribution of the promoter and 3′ UTR sequences of eotaxin-3 to the control of its gene expression following IL-13 and FP treatment, was tested using TE-7 cells transiently transfected with a luciferase reporter construct. The cells were transfected with a luciferase reporter construct containing either 800 bp of the eotaxin-3 promoter 5′ of the firefly luciferase gene in the Pg13-Basic vector or a plasmid containing 200 bp of the eotaxin-3 3′ UTR downstream of the firefly luciferase gene in the Pg13-Promoter vector (FIG. 5A). The same cells were co-transfected with a plasmid containing Renilla luciferase under a constitutive promoter (Phrl-TK) that served as a control for transfection efficiency. Part of the observed decrease in IL-13 induced eotaxin-3 Mrna levels following FP treatment can be mediated through modulation of the promoter activity due to the presence of a putative glucocorticoid-responsive element (GRE) in this region (FIG. 5A).

[3] = system: eotaxin-3 transcript in TE-7 cells; test: IL-13-induced eotaxin-3 transcript levels in TE-7 cells, real-time PCR; format: cell-based; details: IL-13 100 ng/ml, 24 h
Procedure: as §1, §2

[4] = system: FKBP51, KRT7, H19 transcripts; test: Real-time PCR analysis of glucocorticoid-regulated genes in patient esophageal biopsies; format: in vivo, human
Description: FIG. 2 depicts the verification of transcript levels of glucocorticoid-regulated genes by real-time PCR analysis. (A) Microarray data for three glucocorticoid-regulated genes. The average expression level for each patient group (normal, EE, Flovent® (fluticasone propionate) responders, Flovent® non-responders) is expressed as fold-change compared to the normal patients. (B) Real-time PCR analysis for three glucocorticoid-regulated genes. The transcript levels for the indicated gene for each patient population was quantified by real-time PCR and normalized to glyceraldehyde-3-phosphate dehydrogenase (GAPDH) levels. […] The expression pattern of three of the identified candidate genes was validated by real-time PCR analysis.

FKBP51 transcripts = test: Whole genome microarray analysis of esophageal biopsy samples from EE patients treated with swallowed FP; format: in vivo, human; details: esophageal biopsies
Description: FIG. 1 depicts the identification of glucocorticoid-regulated genes in EE patients that respond to FP treatment. (A) Analysis of microarray data to identify glucocorticoid-regulated transcripts. RNA from distinct patient populations was subjected to chip analysis using Affymetrix Human Genome U 133 Plus 2.0 GeneChips®. The groups are composed of the following numbers of patients: normal (NL), n=14; EE, n=14; EE, FP responders (EE R), n=13; EE, FP non-responders, n=8. Using the average expression for each patient group, the subset of genes differentially regulated between normal (NL) and EE patients was identified by t-test (p<0.01). The subset of genes differentially regulated between normal patients and EE patients that respond to FP (EE R) was then identified by 2-fold change filter. Subsequently, the subset of genes differentially regulated between NL and EE patients was subtracted from those differentially regulated between NL and EE R. These transcripts were then subjected to ANOVA, p<0.01. […] The average expression level for each patient group (normal, EE, Flovent® (fluticasone propionate) responders, Flovent® non-responders) is expressed as fold-change compared to the normal patients. […] The transcript levels for the indicated gene for each patient population was quantified by real-time PCR and normalized to glyceraldehyde-3-phosphate dehydrogenase (GAPDH) levels. […]

eotaxin-3 promoter = test: Eotaxin-3 promoter luciferase reporter in transfected TE-7 cells, dual luciferase assay; format: cell-based
Procedure: FIG. 5 depicts increased baseline FKBP51 levels impact glucocorticoid repression of IL-13-induced eotaxin-3 promoter activity. (A) Schematics of constructs used in this study. GRE, glucocorticoid response element. CMV, cytomegalovirus promoter. (B) Cells were transfected with Phrl-TK, pEotaxin-3, and Pcdna3.1 or Pfkbp51. Cells were then treated with IL-13 ([…]) and/or FP (10^−6 M) for 24 h. Protein lysates were then collected, and firefly and Renilla luciferase activity for each sample were quantified by dual luciferase assay (Promega). Eotaxin-3 promoter activity is expressed as the ratio of firefly to Renilla luciferase activity. **, p<0.01; ***, p<0.001.
as §4, §5
To test whether increased FKBP51 levels impacted the FP-mediated decrease in IL-13-induced eotaxin-3 promoter activity, TE-7 cells were transfected with either empty vector (Pcdna3.1) or an expression construction that contained FKBP51 under the control of the CMV promoter (Pfkbp51, FIG. 5A) to simulate high baseline levels of FKBP51. […] However, when cells were transfected with the FKBP51 expression vector, the FP-mediated decrease in IL-13 induced eotaxin-3 promoter activity was abolished (FIG. 5B).

[5] = system: FKBP51 protein in primary esophageal epithelial cells; test: FKBP51 protein in primary esophageal epithelial cells from an EE patient, western blot; format: cell-based, human; details: 10^-6 M FP, 24 h, FKBP51 to actin ratio
Procedure: as §3

FKBP51 in TE-7 cells = test: FKBP51 induction in TE-7 esophageal cell line, western blot and real-time PCR; format: cell-based
Procedure: FIG. 3 depicts FKBP51 induction following glucocorticoid treatment. (A) Peripheral blood mononuclear cells (PBMCs) were isolated from a patient blood sample and cultured ex vivo. The cells were treated with the indicated concentration of FP for 24 h. RNA was isolated, cDNA synthesis was performed, and real-time PCR analysis was conducted. FKBP51 transcript levels were normalized to GAPDH levels. (B) Primary esophageal epithelial cells were cultured from the biopsy of an EE patient with active disease. Cells were treated or not with 10^−6 M FP for 24 h. Protein extracts were prepared and subjected to SDS-PAGE and western blot analysis for FKBP51 and actin (left). FKBP51 and actin levels were quantified by densitometry analysis. The ratio of FKBP51 to actin is shown (right). (C) TE-7 cells were treated with the indicated dose of FP for 24 h. Protein extracts were then prepared and subjected to SDS-PAGE and western blot analysis for FKBP51 and actin (top). Densitometry analysis was performed and the fold-change in the ratio of FKBP51 to actin expression is graphed (bottom). (D) TE-7 cells were treated for the indicated amount of time with 10^−7 M FP. RNA was isolated, cDNA synthesis was performed, and real-time PCR analysis to detect FKBP51 and GAPDH transcripts was done (left). In a separate experiment, protein extracts were prepared and then subjected to SDS-PAGE and western blot analysis for FKBP51 and actin (right, top). Following densitometry analysis, the fold-change in the ratio of FKBP51 to actin signal was graphed (right, bottom)*, p<0.05; **, p<0.01. To further study the role of FKBP51 in epithelial cells, the TE-7 esophageal cell line was used to understand the expression patterns of FKBP51 following FP treatment. […] The kinetics of FKBP51 Mrna and protein expression were examined following FP treatment. […] Similarly, FKBP51 protein levels in TE-7 cells increased in a time dependent manner, with maximum levels of protein observed by 24 h following treatment.

[6] = average, FIG. 2B, real-time PCR

Molecule	IL-13 mediated increase in serpinb4 transcript levels on concomitant FP treatment ([1]; indicated doses of FP)	FKBP51 transcript levels in isolated PBMCs [2]	modulation of mRNA stability via eotaxin-3 3' UTR sequence (eotaxin-3 3' UTR)	IL-13 mediated increase in eotaxin-3 transcript levels on concomitant FP treatment ([3]; indicated doses of FP)	FKBP51 levels in FP responders compared to normal patients [4, 6] [fold]	FKBP51 transcript levels in FP non-responder patients compared to normal patients [4, 6] [fold]	FKBP51, KRT7 and H19 transcript levels in FP responder patients compared to untreated patients ([4]; microarray and real-time PCR)	increase in FKBP51 transcripts in FP-responders compared to control and active EE individuals (FKBP51 transcripts) [fold]	FP-mediated decrease in IL-13 induced eotaxin-3 promoter activity in cells transfected with FKBP51 expression vector (eotaxin-3 promoter; FKBP51 expression vector, IL-13 10 ng/ml, FP 10^-6 M, 24 h, FIG. 5B)	reduction of FP-mediated inhibition of IL-13-induced eotaxin-3 expression by FKBP51 overexpression (eotaxin-3 promoter; FKBP51 overexpression in TE-7 cells) [%]	IL-13-induced eotaxin-3 promoter activity upon concomitant FP treatment (eotaxin-3 promoter; IL-13 100 ng/ml, FP 10^-6 M, 24 h, FIG. 6A)	reduction of IL-13-induced eotaxin-3 promoter activity by concomitant FP (eotaxin-3 promoter; empty vector, IL-13 10 ng/ml, FP 10^-6 M, 24 h, FIG. 5B) [%]	increase in FKBP51 protein in primary esophageal epithelial cells [5]	FKBP51 transcript levels in TE-7 cells over time (FKBP51 in TE-7 cells; 10^-7 M FP, real-time PCR)	time of maximum FKBP51 protein levels in TE-7 cells (FKBP51 in TE-7 cells; 10^-7 M FP, western blot) [h]	FKBP51 protein levels in TE-7 cells in response to FP dose (FKBP51 in TE-7 cells; various doses of FP, 24 h, western blot)	serpinb4 transcript levels on IL-13 treatment ([1]; TE-7 cells)	eotaxin-3 transcript levels on IL-13 treatment ([3]; TE-7 cells)	increase in eotaxin-3 promoter activity upon IL-13 treatment (eotaxin-3 promoter; empty vector, IL-13 10 ng/ml, 24 h, FIG. 5B) [fold]
CCC(=O)O[C@]1(C(=O)SCF)[C@H](C)C[C@H]2[C@@H]3C[C@H](F)C4=CC(=O)C=C[C@]4(C)[C@@]3(F)[C@@H](O)C[C@@]21C [FP, S-fluoromethyl-6α,9-difluoro-11β-hydroxy-16α-methyl-3-oxoandrosta-1,4-diene-17β-carbothioate, 17-propionate]	decreased in a dose-dependent manner	significant increase	did not show any modulation	decreased in a dose-dependent manner	4	1.5	increased transcript levels	4	abolished	50	decrease	50	approximately 3 fold	increased by 4 h post treatment and were further increased by 8 h, after which no further increase was observed	≤ 24	dose-dependent increase	–	–	–
IL-13: cytokine used to induce eotaxin-3 and serpinb4 in TE-7 esophageal epithelial cells	–	–	did not show any modulation	–	–	–	–	–	–	–	–	–	–	–	–	–	increase	increase	2
